Laboratory results published in patent publication US20240140941A1, “DERIVATIVE OF 2,5-DIKETOPIPERAZINE COMPOUND, AND PREPARATION METHOD THEREFOR, PHARMACEUTICAL COMPOSITION THEREOF AND USE THEREOF” (DALIAN WZ PROBIOTICS AD HEALTH CO., LTD, priority 2020, published 2024).
Counter-ions that a name gives are not always drawn. Like-named read-outs stand apart in the source and are kept apart here.

Legend:
[1] = tested on: BxPC-3; assay: Inhibition test on cell proliferation (MTT), BxPC-3; format: cell-based, human; conditions: 72 hours of drug treatment, MTT, read-out: IC50 (nM) BxPC-3
How it was run: (§1)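 Cells plated at 2000-6000 per well, allowed to adhere for 24 h, then exposed to serially diluted compound for 72 h at 37 °C, 5% CO2. Viability read by MTT reduction, with formazan dissolved in DMSO and absorbance taken at 490 nm. Inhibition rate calculated relative to untreated and zero-setting wells.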

[2] = tested on: HCC-LM3; assay: Inhibition test on cell proliferation (MTT), HCC-LM3; format: cell-based, human; conditions: 72 hours of drug treatment, MTT, read-out: IC50 (nM) HCC-LM3
How it was run: as §1

[3] = Compound solubility experiment, Method 1: equilibrium solubility in pure water, LC-MS; format: physicochemical; conditions: ultrapure water, 37±1° C., shaken 24 hours; for solubility at 24 h: 37 °C, thermodynamic from solid
Protocol: Method 1: A 1.5 mL brown EP tube was taken, about 1 mg of compound was weighed respectively, and 1 mL of ultrapure water was added thereto. The mixture was vortexed, and sonicated until the compound was no longer dissolved (the solution was turbid or had suspended particles). The mixture was put into an incubation shaker, maintained at a temperature of (37±1° C.), shaken at 100 r/min for 24 hours, so as to achieve full dissolution equilibrium. After 24 hours, the supernatant was quickly filtered through a 0.45 μm microporous membrane, and the initial filtrate was discarded. 200 μL of the renewed filtrate was taken and diluted with 200 μL of methanol. The assay was repeated at least three times. According to the chromatographic conditions, the sample was injected by LC-MS, and the peak area was measured and the equilibrium solubility of each 2,5-diketopiperazine derivative in pure water was calculated.

[4] = tested on: NCI-H460; assay: Inhibition test on cell proliferation (MTT), NCI-H460; format: cell-based, human; conditions: 72 hours of drug treatment, MTT, read-out: IC50 (nM) NCI-H460
How it was run: as §1

[5] = tested on: HT-29; assay: Inhibition test on cell proliferation (MTT), HT-29; format: cell-based, human; conditions: 72 hours of drug treatment
How it was run: as §1

Compound	IC50 ([1]; Homo sapiens, BXPC-3, 72 h) [nM]	IC50 ([2]; Homo sapiens, HCCLM3, 72 h) [nM]	solubility at 24 h [3] [µg/mL]	IC50 ([4]; Homo sapiens, NCI-H460, 72 h) [nM]	Solubility [3] [µg/mL]	melting point [°C]	IC50 ([5]; Homo sapiens, HT-29, 72 h) [nM]	IC50 [1] [nM]	IC50 [2] [nM]	IC50 [5] [nM]	IC50 [4] [nM]
CC(C)c1c(/C=c2\[nH]c(=O)/c(=C/c3ccc(F)c(F)c3)[nH]c2=O)ncn1CCCN1CCOCC1 [PLN-2-63]	55.3 ± 3.42	64.9 ± 5.12	< 0.5	72.2 ± 4.86	–	–	–	–	–	–	–
CC(C)(C)c1[nH]cnc1/C=c1\[nH]c(=O)/c(=C/c2ccccc2)[nH]c1=O [Plinabulin hydrochloride, reference compound]	–	–	–	–	7.654	–	–	–	–	–	–
CC(C)c1c(/C=c2\[nH]c(=O)/c(=C/c3cc(F)ccc3F)[nH]c2=O)ncn1CCCN1CCOCC1 [PLN-2-7, (3Z,6Z)-3-(2,5-difluorophenyl)methylene-6-((5-isopropyl-1-(3-morpholinyl)propylimidazol-4-yl)methylene)piperazine-2,5-dione]	4.92 ± 1.48	3.3 ± 1.88	< 0.5	6.12 ± 0.43	–	211.6 to 213.6	4.03 ± 0.19	–	–	–	–
O=C(c1ccc(F)cc1)c1cccc(/C=c2\[nH]c(=O)/c(=C/c3ncn(CCCN4CCOCC4)c3C3CC3)[nH]c2=O)c1 [PLN-2-3]	1.43 ± 0.95	6.31 ± 0.16	< 0.25	4.9 ± 0.61	–	–	2.15 ± 0.33	–	–	–	–
CC(C)c1c(/C=c2\[nH]c(=O)/c(=C/c3cc(F)cc(F)c3)[nH]c2=O)ncn1CCCN1CCOCC1 [PLN-2-62]	3.44 ± 0.12	3.89 ± 0.16	< 0.5	4.17 ± 0.75	–	–	3.49 ± 0.23	–	–	–	–
CC(C)c1c(/C=c2\[nH]c(=O)/c(=C/c3cccc(Oc4ccc(F)cc4)c3)[nH]c2=O)ncn1CCCN1CCOCC1 [PLN-2-2]	–	–	< 0.5	5.25 ± 0.49	–	194 to 195	–	4.63 ± 0.16	5.58 ± 1.03	3.83 ± 0.43	–
CC(C)c1c(/C=c2\[nH]c(=O)/c(=C/c3cccc(C(=O)c4ccc(F)cc4)c3)[nH]c2=O)ncn1CCCN1CCOCC1 [PLN-2-1, (3Z,6Z)-3-(3-(p-fluorobenzoyl)phenyl)methylene-6-((5-isopropyl-1-(3-morpholinyl)propylimidazol-4-yl)methylene)piperazine-2,5-dione]	–	–	< 0.5	–	–	–	–	2.29 ± 0.82	4.2 ± 0.12	1.03 ± 0.11	3.45 ± 0.33
CC(C)c1c(/C=c2\[nH]c(=O)/c(=C/c3cccc(F)c3)[nH]c2=O)ncn1CCCN1CCOCC1 [PLN-2-9, (3Z,6Z)-3-fluorophenylmethylene-6-((5-isopropyl-1-(−3-morpholinyl)propylimidazol-4-yl)methylene)piperazine-2,5-dione]	5.47 ± 0.57	5.13 ± 0.12	< 0.5	8.51 ± 0.1	–	–	4.37 ± 0.62	–	–	–	–
O=c1[nH]/c(=C\c2ncn(CCCN3CCOCC3)c2C2CC2)c(=O)[nH]/c1=C\c1cccc(Oc2ccc(F)cc2)c1 [PLN-2-4]	–	–	< 0.5	25.7 ± 2.62	–	–	–	–	–	–	–
O=c1[nH]/c(=C\c2ncn(CCCN3CCOCC3)c2C2CC2)c(=O)[nH]/c1=C\c1cccc(F)c1 [PLN-2-10, (3Z,6Z)-3-m-fluorophenylmethylene-6-((5-cyclopropyl-1-(−3-morpholinyl)propylimidazol-4-yl)methylene)piperazine-2,5-dione]	8.97 ± 0.74	14.9 ± 0.22	< 0.5	17.7 ± 5.18	–	–	10.6 ± 1.27	–	–	–	–
CC(C)c1c(/C=c2\[nH]c(=O)/c(=C/c3ccccc3)[nH]c2=O)ncn1CCCN1CCOCC1 [PLN-2-5, (3Z,6Z)-3-benzylidene-6-((5-isopropyl-1-(−3-morpholinyl)propylimidazol-4-yl)methylene)piperazine-2,5-dione]	12.5 ± 1.47	9.78 ± 2.21	< 0.5	19.4 ± 1.63	–	199.1 to 201.1	11.8 ± 1.31	–	–	–	–
